Details of data set [1]: method as in 2 sources, one per row (each row's own in cited_ref): ref 35 = [35]; PMID 14514352; doi:10.1042/BJ20031350; 35 Veiga S , Henriques S , Santos NC , Castanho MARB ( 2004 ) Putative role of membranes in the HIV fusion inhibitor enfuvirtide mode of action at the molecular level . Biochem J 377 : 107 – 110 . 145 ||| ref 8, 29 = [8]; PMID 18410103; doi:10.1021/ja711247n; 8 Franquelim HG , Loura LM , Santos NC , Castanho MARB ( 2008 ) Sifuvirtide screens rigid membrane surfaces. establishment of a correlation between efficacy and membrane domain selectivity among HIV f || [29]; PMID 21075080; doi:10.1016/j.bbrc.2010.11.013; 29 Matos PM , Freitas T , Castanho MARB , Santos NC ( 2010 ) The role of blood cell membrane lipids on the mode of action of HIV-1 fusion inhibitor sifuvirtide . Biochem Biophys Res Commun 403 : 270 –. To be noted: cited from earlier work.

For another data set, the system named is human erythrocytes. As to the kind of experiment: Membrane dipole potential assessed by di-8-ANEPPS, erythrocytes. Particulars: up to 6 µM. In kind it is cell-based. As for the experimental part: (§1) Human blood samples were obtained from healthy volunteers, with their previous written informed consent, at the Instituto Português do Sangue (Lisbon, Portugal). This study was approved by the ethics committee of the Faculdade de Medicina da Universidade de Lisboa. Isolation of erythrocytes and PBMC and labeling of these cells with di-8-ANEPPS (Invitrogen, Carlsbad, CA, USA) were performed as described before, [29]. […] They were incubated at 1% hematocrit in buffer supplemented with 0.05% (m/v) Pluronic F-127 (Sigma) and di-8-ANEPPS 10 µM. PBMC were isolated by density gradient using Ficoll-Paque Plus (GE Healthcare, Little Chalfont, UK) and counted in a Neubauer improved hemocytometer. They were incubated at 3000 cells/µL in Pluronic-supplemented buffer with 3.3 µM di-8-ANEPPS. Cells were incubated with the fluorescent probe during 1 h, with gentle agitation, and unbound probe was washed with Pluronic-free buffer on two centrifugation cycles. […] For lipid vesicles labeling, suspensions with […] of total lipid were incubated overnight with di-8-ANEPPS 10 µM, to ensure maximum incorporation of the probe. The maximum concentration of DMSO or DMSO:ethanol in the suspensions was 2.4% (v/v) at 6 µM of peptide or cholesterol. […] The variation of R with the peptide concentration was analyzed by a single binding site model: [drawing 5] […]

In another data set the test system is PBMC. As to the kind of experiment: Membrane dipole potential assessed by di-8-ANEPPS, PBMC. The format is cell-based, human. To be noted: up to 6 µM. As for the experimental part:
as §1

A short description of data set [2]: Membrane dipole potential assessed by di-8-ANEPPS, labeled lipid vesicles. To be noted: di-8-ANEPPS labeled LUV, control additions (data not shown). In kind it is physicochemical. As for the experimental part:
as §1

Turning to sifuvirtide, in data set [1], the “binding to POPC vesicles” value is “residual binding”.
As to `CC(C)CCC[C@@H](C)[C@H]1CC[C@H]2[C@@H]3CC=C4C[C@@H](O)CC[C@]4(C)[C@H]3CC[C@]12C` [cholesterol], the “effect on membrane dipole potential” value in the data set with human erythrocytes and with PBMC was “not sufficient to induce a detectable membrane potential change” throughout. Moreover, in data set [2], the “changes on the dipole potential” value was “no changes”.

The record behind these values is publication PMC3614957 (PLoS ONE, 2013).
